Among the test systems are UO-31 renal; SK-MEL-28 melanoma; NCI-H226 lung; UACC-257 melanoma; UACC-62 melanoma; MOLT-4 leukemia; HCT-15 colon; HCT-116 colon; A498 renal; NCI/ADR-RES ovarian; NCI-H23 lung; HCC-2998 colon; RXF 393 renal; IGROV1 ovarian; CCRF-CEM leukemia; SK-MEL-5 melanoma; DU-145 prostate; SNB-75 CNS.
Common to all, as to assay: NCI-60 cell line screen, 48 h

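Exposure lasted 48 hours, with cells grown in 96-well plates and compounds tested at five concentrations. TGI: total growth inhibition.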 Where a SMILES comes first, the peptide text is derived from it. [ ]: non-standard residue; d: D form. The star is where a group is joined. Bn2Val = CC(C)[C@@H](C(=O)*)N(Cc1ccccc1)Cc1ccccc1; NH(3,4-diMeO-benzyl) = COc1ccc(CN*)cc1OC; NMeV = CN[C@H](C(=O)O)C(C)C

As to `O=C1OC(CS(=O)(=O)c2ccccc2)CC1O` (configuration not stated), the TGI in the experiment on UO-31 renal, in the experiment with SK-MEL-28 melanoma, in the experiment with NCI-H226 lung, with UACC-257 melanoma, in the experiment on UACC-62 melanoma and in the experiment on MOLT-4 leukemia was more than 100 µM in each case. Also, the TGI in the experiment with HCT-15 colon, with HCT-116 colon, in the experiment with A498 renal, in the experiment with NCI/ADR-RES ovarian, with NCI-H23 lung and in the experiment with HCC-2998 colon was more than 100 µM throughout. Further, the TGI in the experiment with RXF 393 renal, with IGROV1 ovarian, in the experiment on CCRF-CEM leukemia, with SK-MEL-5 melanoma and in the experiment with DU-145 prostate was more than 100 µM throughout.
`Cc1nnc2n1N=C(c1cc(F)c(Cl)cc1Cl)/C(=C/c1ccc3c(c1)OCO3)S2`: the TGI in the experiment with UO-31 renal, with SK-MEL-28 melanoma, in the experiment with NCI-H226 lung, with UACC-257 melanoma, in the experiment with UACC-62 melanoma and with MOLT-4 leukemia was more than 100 µM throughout. The TGI with HCT-15 colon, with HCT-116 colon, with A498 renal, in the experiment with NCI/ADR-RES ovarian, in the experiment with NCI-H23 lung and with HCC-2998 colon was more than 100 µM throughout. For the same compound, the TGI with RXF 393 renal, with IGROV1 ovarian, in the experiment with CCRF-CEM leukemia, with SK-MEL-5 melanoma and in the experiment on DU-145 prostate was more than 100 µM in each case.
Turning to `CC[C@H]1C=CCC[C@@]2(C[C@@H]3CC[C@H]4[C@H](C(=O)OCCCCCCCCCCCCCCCC(=O)N(CCCN)C[C@@H](O)CCN)[C@]5(CCC[C@@H](C)O5)NC(=[N+]34)N2)O1`, the TGI with UO-31 renal was 1.69 µM; in the experiment with SK-MEL-28 melanoma it was 3.98 µM; in the experiment with NCI-H226 lung, 3.32 µM; with UACC-257 melanoma, 2.02 µM; in the experiment with UACC-62 melanoma, 0.412 µM; with MOLT-4 leukemia it was 1.29 µM. The TGI in the experiment on HCT-15 colon was 2.18 µM; in the experiment with HCT-116 colon, 1.31 µM; in the experiment with A498 renal, 3.09 µM; in the experiment on NCI/ADR-RES ovarian, 4.81 µM; in the experiment on NCI-H23 lung, 3.21 µM; in the experiment with HCC-2998 colon, 1.82 µM. For the same compound, the TGI in the experiment on RXF 393 renal stood at 3.42 µM; in the experiment on IGROV1 ovarian it was 2.02 µM; in the experiment on SK-MEL-5 melanoma, 1.31 µM; in the experiment with DU-145 prostate it was 2.3 µM.
As for `COc1ccc(CNC(=O)[C@@H]2CCCN2C(=O)[C@@H]2CCCN2C(=O)[C@H](C(C)C)N(C)C(=O)[C@@H](NC(=O)[C@H](C(C)C)N(Cc2ccccc2)Cc2ccccc2)C(C)C)cc1OC` (Bn2Val-V[NMeV]PP-{NH(3,4-diMeO-benzyl)}), the TGI was 38.5 µM with SK-MEL-28 melanoma; 33.4 µM with NCI-H226 lung; 42.9 µM with UACC-257 melanoma; 29.7 µM with UACC-62 melanoma; 72.2 µM with MOLT-4 leukemia; 31.4 µM in the experiment with HCT-15 colon. The TGI in the experiment on HCT-116 colon is 29.5 µM; in the experiment with A498 renal it was 31.6 µM; in the experiment with NCI/ADR-RES ovarian it was 48.2 µM; with NCI-H23 lung, 38.6 µM; with RXF 393 renal it was 26.7 µM; in the experiment on IGROV1 ovarian, 13.4 µM. In addition, the TGI was more than 100 µM in the experiment with CCRF-CEM leukemia, 25.7 µM with SNB-75 CNS, 20.4 µM with SK-MEL-5 melanoma and 30.1 µM in the experiment on DU-145 prostate.
In the case of `CCN(CC)C(=S)SS(=O)(=O)c1ccc(NC(C)=O)cc1`, the TGI in the experiment with UO-31 renal was 42.6 µM; in the experiment with SK-MEL-28 melanoma, 39.2 µM; with NCI-H226 lung, more than 100 µM; in the experiment with UACC-257 melanoma, 58.7 µM; in the experiment on UACC-62 melanoma it was more than 91.3 µM; with HCT-15 colon, more than 100 µM. For the same compound, the TGI was 31.1 µM in the experiment with HCT-116 colon; more than 89.5 µM in the experiment with A498 renal; 95.4 µM in the experiment on NCI/ADR-RES ovarian; 62.3 µM with NCI-H23 lung; more than 100 µM with HCC-2998 colon; 33 µM in the experiment with RXF 393 renal. Further, the results for the TGI in the experiment with SNB-75 CNS, in the experiment on SK-MEL-5 melanoma and with DU-145 prostate were 97.2 µM, 20.9 µM and more than 75.4 µM, respectively.
For `COC(=O)[C@@H]1OC(C)(c2ccccc2)O[C@H]1C(=O)OC`, the TGI in the experiment with UO-31 renal, in the experiment on SK-MEL-28 melanoma, in the experiment with NCI-H226 lung, with UACC-257 melanoma, with UACC-62 melanoma and in the experiment with MOLT-4 leukemia was more than 100 µM each time. Moreover, the TGI in the experiment with HCT-15 colon, in the experiment on A498 renal, with NCI/ADR-RES ovarian, in the experiment on NCI-H23 lung, with HCC-2998 colon and in the experiment on RXF 393 renal was more than 100 µM in each case. Also, the TGI with IGROV1 ovarian, in the experiment with CCRF-CEM leukemia, in the experiment with SNB-75 CNS, in the experiment with SK-MEL-5 melanoma and in the experiment with DU-145 prostate was more than 100 µM in each case.
As for `COc1ccc(N=CN(C)C)c(C)c1`, the TGI in the experiment with UO-31 renal was determined as 78.1 µM; in the experiment on SK-MEL-28 melanoma, 85.6 µM; with NCI-H226 lung, 64.5 µM; in the experiment on UACC-257 melanoma, 9.95 µM; in the experiment with UACC-62 melanoma, 42.6 µM; in the experiment with MOLT-4 leukemia, 23.8 µM. Besides, the TGI is more than 100 µM in the experiment with HCT-15 colon; 19.6 µM with HCT-116 colon; 60.5 µM in the experiment on A498 renal; more than 100 µM with NCI/ADR-RES ovarian; 7.23 µM with NCI-H23 lung; 67.2 µM with RXF 393 renal. The TGI in the experiment with IGROV1 ovarian is more than 100 µM; in the experiment with CCRF-CEM leukemia, 16.5 µM; in the experiment with SNB-75 CNS, 63.9 µM; in the experiment on SK-MEL-5 melanoma, 12.5 µM; in the experiment on DU-145 prostate, 82 µM.
On to `CN(C)Cc1cc(/C=C/C(=O)c2ccc(Cl)c(Cl)c2)cc(CN(C)C)c1O`, for which the TGI in the experiment on UO-31 renal was determined as 19.6 µM; with SK-MEL-28 melanoma, 26.9 µM; in the experiment with UACC-257 melanoma it was 25.8 µM; with UACC-62 melanoma it was 27.4 µM; in the experiment with MOLT-4 leukemia, 32.3 µM; in the experiment on HCT-116 colon, 26.1 µM. For the same compound, the TGI in the experiment on A498 renal was found to be 32.4 µM; with NCI/ADR-RES ovarian, 50.6 µM; in the experiment with HCC-2998 colon, 19.3 µM; in the experiment with RXF 393 renal it was 28.4 µM; in the experiment with IGROV1 ovarian it was 25.3 µM; in the experiment on CCRF-CEM leukemia it was 16.9 µM. Moreover, the TGI with SNB-75 CNS is 21.1 µM; in the experiment with SK-MEL-5 melanoma it was 28.1 µM; with DU-145 prostate it was 27.1 µM.
On to `Cc1ccc(C2SCC(=O)N2NC(=O)c2ccncc2)s1` (configuration not stated), for which the TGI in the experiment with UO-31 renal, with SK-MEL-28 melanoma, in the experiment on NCI-H226 lung, in the experiment on UACC-257 melanoma, in the experiment with UACC-62 melanoma and in the experiment on MOLT-4 leukemia was more than 100 µM throughout. Also, the TGI in the experiment on HCT-15 colon, with HCT-116 colon, with A498 renal, in the experiment with NCI/ADR-RES ovarian, in the experiment with NCI-H23 lung and in the experiment with HCC-2998 colon was more than 100 µM in each case. In addition, the TGI in the experiment with RXF 393 renal, in the experiment on IGROV1 ovarian, in the experiment with CCRF-CEM leukemia, in the experiment with SK-MEL-5 melanoma and in the experiment with DU-145 prostate was more than 100 µM in each case.
On to `CC(C)N1[C@@H]2CCCC[C@H]2N(C(C)C)P1(=O)C(=O)/C=C/c1ccccc1`, for which the TGI in the experiment on UO-31 renal was determined as 3.13 µM; with SK-MEL-28 melanoma it was 8.87 µM; in the experiment with NCI-H226 lung it was 24.6 µM; with UACC-257 melanoma, 13.5 µM; in the experiment with UACC-62 melanoma, 9.02 µM; in the experiment with MOLT-4 leukemia, 16.1 µM. In addition, the TGI in the experiment on HCT-15 colon was found to be 4.14 µM; in the experiment on HCT-116 colon it was 3.73 µM; in the experiment on A498 renal, 16.9 µM; with NCI/ADR-RES ovarian, 4.81 µM; in the experiment on NCI-H23 lung it was 6.42 µM; in the experiment on HCC-2998 colon, 5.33 µM. Moreover, the TGI turned out to be 3.46 µM with RXF 393 renal, 4.37 µM in the experiment on IGROV1 ovarian, 3.44 µM in the experiment with SK-MEL-5 melanoma and 4.94 µM with DU-145 prostate.
Take `C#CCCOC(=O)c1ccccc1OC(C)=O`: the TGI with UO-31 renal, in the experiment with NCI-H226 lung, in the experiment on UACC-257 melanoma, with UACC-62 melanoma, in the experiment with MOLT-4 leukemia and in the experiment on HCT-15 colon was more than 100 µM throughout. Also, the TGI with HCT-116 colon, with A498 renal, in the experiment on NCI/ADR-RES ovarian, in the experiment on NCI-H23 lung, with RXF 393 renal and in the experiment with IGROV1 ovarian was more than 100 µM each time. Moreover, the TGI with CCRF-CEM leukemia, with SNB-75 CNS, in the experiment with SK-MEL-5 melanoma and in the experiment with DU-145 prostate was more than 100 µM in each case.
Consider `O=c1cc(-c2cccc(OCc3ccccc3)c2)[nH]c2cc3c(cc12)OCO3`, for which the TGI with UO-31 renal was 16 µM; in the experiment on SK-MEL-28 melanoma it was more than 100 µM; with NCI-H226 lung, 7.79 µM; in the experiment on UACC-257 melanoma, more than 100 µM; with UACC-62 melanoma, 12.3 µM; with MOLT-4 leukemia, more than 100 µM. Moreover, the TGI with HCT-116 colon is more than 100 µM; in the experiment with A498 renal, 3.16 µM; in the experiment on NCI/ADR-RES ovarian, 0.462 µM; with NCI-H23 lung, 15 µM; with HCC-2998 colon, 0.751 µM; in the experiment on RXF 393 renal, 8.15 µM. Also, the TGI is more than 100 µM with IGROV1 ovarian, 0.481 µM in the experiment with CCRF-CEM leukemia, more than 100 µM in the experiment with SK-MEL-5 melanoma and more than 100 µM in the experiment with DU-145 prostate.
Regarding `C=CCC1C(=O)Nc2cccc3ncn(c23)C1=O` (configuration not stated), the TGI in the experiment on UO-31 renal, in the experiment with SK-MEL-28 melanoma, in the experiment with NCI-H226 lung, with UACC-257 melanoma, in the experiment with UACC-62 melanoma and with MOLT-4 leukemia was more than 100 µM in each case. Moreover, the TGI in the experiment with HCT-15 colon, in the experiment with HCT-116 colon, with A498 renal, in the experiment with NCI/ADR-RES ovarian, with NCI-H23 lung and in the experiment with RXF 393 renal was more than 100 µM each time. Also, the TGI in the experiment with IGROV1 ovarian, in the experiment on CCRF-CEM leukemia, in the experiment on SNB-75 CNS, in the experiment with SK-MEL-5 melanoma and with DU-145 prostate was more than 100 µM each time.
